Data set [1] has as its system class IIa HDACs (HDAC4, HDAC5, HDAC7, HDAC9). The data set is described as follows: HDAC inhibition assay, class IIa HDAC enzymes. In kind it is biochemical, human. As to the method: (§1) The inventive compounds may be tested in any assay for HDAC inhibitor activity. In certain embodiments, the assay for determining the inhibitory effect of an inventive compound on an HDAC protein comprising: incubating the HDAC protein with a substrate of formula: […]
(§2) in the presence of an inventive compound; and determining the activity of the HDAC protein by monitoring the release of 7-amino-4-methylcoumarin after cleavage by trypsin.
(§3) In certain embodiments, the assay is performed in water. In other embodiments, the assay is performed in an organic solvent. In still other embodiments, the assay in performed in a buffer. In certain embodiments, the buffer is an assay buffer. In other embodiments, the assay buffer comprises HEPES, KCl, Tween-20, BSA, and TCEP. In further embodiments, the assay buffer is […] HEPES, 100 mM KCl, 0.001% Tween-20, 0.05% BSA, 200 µM TCEP, pH 7.4. In certain embodiments, the assay is performed at approximately pH 5.0-6.0. In certain embodiments, the assay is performed at approximately pH 5.0-9.0. In certain embodiments, the assay is performed at a pH optimum for an HDAC enzyme to function.

The test system of a further data set is HDAC1-3. The data set is described as follows: HDAC inhibition assay, HDAC1-3. In kind it is biochemical, human. The note with it: fluorinated MAZ1702 versus MAZ1704. As for the experimental part: as §1, §2, §3
The conditions of data set [2]: difference versus unsubstituted cinnamic hydroxamic acid; Dessolin et al. 1970; cited from earlier work.

Regarding `O=C(NO)/C(F)=C/c1ccccc1` [MAZ1702], the “affinity for class IIa HDAC enzymes compared to MAZ1704” value in data set [1] (FIG. 2 legend, in words) is recorded as “significantly increased affinity”. In addition, the “binds fold better to class IIa enzymes” value in data set [1] (fluorinated MAZ1702 versus MAZ1704 (FIG. 2)) is 3.5-5 fold. For the same compound, the “fold increase in activity for HDAC1-3” value in the data set on HDAC1-3 is on record as 1-1.4 fold.

Consider `O=C(NO)C(F)=Cc1ccccc1` [α-fluoro cinnamic hydroxamic acid], for which, in data set [2], the “pKa, units lower than unsubstituted cinammic hydroxamic acid” value was “approximately 0.9 units”. The “fold increase in activity for class IIa enzymes” value in data set [1] (direct comparison with cinnamic hydroxamic acid) is recorded as 5-10 fold.

Values taken from patent publication US20130040998A1, “FLUORINATED HDAC INHIBITORS AND USES THEREOF” (Dana-Farber Cancer Institute, Inc., priority 2010, published 2013).
